Experimental data as given in patent US10358434B2, “2-(3-pyridinyl)-1H-benzimidazole derivative compound and medicament containing same” (NIHON MEDI-PHYSICS CO., LTD., priority 2014, dated 2019).

Experiments:
[1] = In vivo kinetics experiment (radioactivity distribution); parameters: species or system Wistar male rat; details: rat, caudal vein
Outline: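 Tissue radioactivity (% ID/g) and adrenal-to-blood, liver, kidney, small intestine, muscle and fat ratios determined at 10, 30 and 60 min post-dose. Tracers (approximately 1 to 3.7 MBq, saline with 1 w/v % ascorbic acid) injected i.v. into caudal vein of anesthetized 9-week male Wistar rats; organs excised, weighed, counted.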

[2] = Plasma stability evaluation (TLC analysis); format: in vitro ADME; details: 37° C., 60 minutes, TLC analysis
Outline: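 TLC analysis, using each compound's synthesis conditions, judged stability after methanol was added and samples were centrifuged to remove protein. Beforehand, each tracer had spent 60 minutes at 37° C in pooled heparinized normal human plasma.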

[3] = test system: human adrenal gland section expressing aldosterone-producing adenoma; experiment: In vitro autoradiography using human adrenal adenoma; format: binding; details: section of FIG. 17(b)
Outline: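 Autoradiography readout: PSL in equal-sized ROIs over adenoma (B2) and normal adrenal cortex (B1), expressed as B2/B1 and decay-corrected using half-life, applied activity and plate contact time. Tissue was surgically excised human adrenal, frozen and cut at 7 μm, incubated 10 min with 5-33 kBq/mL tracer in BSA-containing PBS, then imaged after 16-20 h exposure.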

Adrenal gland/blood ratio of radioactivity accumulation ([1]; 10 min after administration): 52.24 ± 16.82
Adrenal gland/fat ratio of radioactivity accumulation ([1]; 10 min after administration): 49.21 ± 30.24
Adrenal gland/kidney ratio of radioactivity accumulation ([1]; 10 min after administration): 3.95 ± 1.50
Adrenal gland/liver ratio of radioactivity accumulation ([1]; 10 min after administration): 4.37 ± 1.12
Adrenal gland/muscle ratio of radioactivity accumulation ([1]; 10 min after administration): 34.85 ± 6.45
Adrenal gland/small intestine ratio of radioactivity accumulation ([1]; 10 min after administration): 3.44 ± 1.04
Radioactivity distribution Adrenal gland ([1]; 10 min after administration): 10.24 ± 4.48 % ID/g
Radioactivity distribution Bladder (including urine) ([1]; 10 min after administration): 0.43 ± 0.13 % ID/g
Radioactivity distribution Blood ([1]; 10 min after administration): 0.13 ± 0.01 % ID/g
Radioactivity distribution Fat ([1]; 10 min after administration): 0.11 ± 0.01 % ID/g
Radioactivity distribution Femur ([1]; 10 min after administration): 0.85 ± 0.40 % ID/g
Radioactivity distribution Heart ([1]; 10 min after administration): 0.65 ± 0.09 % ID/g
Radioactivity distribution Kidney ([1]; 10 min after administration): 2.09 ± 0.09 % ID/g
Radioactivity distribution Large intestine ([1]; 10 min after administration): 0.11 ± 0.01 % ID/g
Radioactivity distribution Liver ([1]; 10 min after administration): 4.09 ± 0.45 % ID/g
Radioactivity distribution Lung ([1]; 10 min after administration): 0.98 ± 0.16 % ID/g
Radioactivity distribution Muscle (lower limbs) ([1]; 10 min after administration): 0.18 ± 0.05 % ID/g
Radioactivity distribution Remaining whole body ([1]; 10 min after administration): 0.24 ± 0.01 % ID/g
Radioactivity distribution Small intestine ([1]; 10 min after administration): 1.29 ± 0.12 % ID/g
Radioactivity distribution Spleen ([1]; 10 min after administration): 5.59 ± 1.78 % ID/g
Radioactivity distribution Stomach ([1]; 10 min after administration): 0.66 ± 0.34 % ID/g
Radioactivity distribution Testis ([1]; 10 min after administration): 0.04 ± 0.01 % ID/g
Radioactivity distribution Whole brain ([1]; 10 min after administration): 0.01 ± 0.00 % ID/g
Adrenal gland/blood ratio of radioactivity accumulation ([1]; 30 min after administration): 199.21 ± 91.92
Adrenal gland/fat ratio of radioactivity accumulation ([1]; 30 min after administration): 106.15 ± 23.20
Adrenal gland/kidney ratio of radioactivity accumulation ([1]; 30 min after administration): 12.16 ± 7.12
Adrenal gland/liver ratio of radioactivity accumulation ([1]; 30 min after administration): 17.77 ± 9.08
Adrenal gland/muscle ratio of radioactivity accumulation ([1]; 30 min after administration): 98.15 ± 67.95
Adrenal gland/small intestine ratio of radioactivity accumulation ([1]; 30 min after administration): 3.25 ± 1.07
Radioactivity distribution Adrenal gland ([1]; 30 min after administration): 15.46 ± 8.64 % ID/g
Radioactivity distribution Bladder (including urine) ([1]; 30 min after administration): 1.13 ± 0.19 % ID/g
Radioactivity distribution Blood ([1]; 30 min after administration): 0.10 ± 0.02 % ID/g
Radioactivity distribution Fat ([1]; 30 min after administration): 0.12 ± 0.03 % ID/g
Radioactivity distribution Femur ([1]; 30 min after administration): 0.83 ± 0.03 % ID/g
Radioactivity distribution Heart ([1]; 30 min after administration): 0.64 ± 0.04 % ID/g
Radioactivity distribution Kidney ([1]; 30 min after administration): 1.65 ± 0.27 % ID/g
Radioactivity distribution Large intestine ([1]; 30 min after administration): 0.14 ± 0.02 % ID/g
Radioactivity distribution Liver ([1]; 30 min after administration): 1.89 ± 0.21 % ID/g
Radioactivity distribution Lung ([1]; 30 min after administration): 0.97 ± 0.10 % ID/g
Radioactivity distribution Muscle (lower limbs) ([1]; 30 min after administration): 0.16 ± 0.02 % ID/g
Radioactivity distribution Remaining whole body ([1]; 30 min after administration): 0.27 ± 0.01 % ID/g
Radioactivity distribution Small intestine ([1]; 30 min after administration): 3.40 ± 0.80 % ID/g
Radioactivity distribution Spleen ([1]; 30 min after administration): 6.71 ± 0.48 % ID/g
Radioactivity distribution Stomach ([1]; 30 min after administration): 0.61 ± 0.14 % ID/g
Radioactivity distribution Testis ([1]; 30 min after administration): 0.05 ± 0.01 % ID/g
Radioactivity distribution Whole brain ([1]; 30 min after administration): 0.01 ± 0.00 % ID/g
Adrenal gland/blood ratio of radioactivity accumulation ([1]; 60 min after administration): 235.46 ± 58.57
Adrenal gland/fat ratio of radioactivity accumulation ([1]; 60 min after administration): 108.45 ± 23.85
Adrenal gland/kidney ratio of radioactivity accumulation ([1]; 60 min after administration): 13.73 ± 3.51
Adrenal gland/liver ratio of radioactivity accumulation ([1]; 60 min after administration): 20.07 ± 5.16
Adrenal gland/muscle ratio of radioactivity accumulation ([1]; 60 min after administration): 124.82 ± 30.33
Adrenal gland/small intestine ratio of radioactivity accumulation ([1]; 60 min after administration): 2.42 ± 0.71
Radioactivity distribution Adrenal gland ([1]; 60 min after administration): 18.65 ± 1.67 % ID/g
Radioactivity distribution Bladder (including urine) ([1]; 60 min after administration): 3.04 ± 1.32 % ID/g
Radioactivity distribution Blood ([1]; 60 min after administration): 0.06 ± 0.01 % ID/g
Radioactivity distribution Fat ([1]; 60 min after administration): 0.12 ± 0.04 % ID/g
Radioactivity distribution Femur ([1]; 60 min after administration): 0.90 ± 0.10 % ID/g
Radioactivity distribution Heart ([1]; 60 min after administration): 0.56 ± 0.01 % ID/g
Radioactivity distribution Kidney ([1]; 60 min after administration): 1.23 ± 0.01 % ID/g
Radioactivity distribution Large intestine ([1]; 60 min after administration): 0.55 ± 0.52 % ID/g
Radioactivity distribution Liver ([1]; 60 min after administration): 0.96 ± 0.10 % ID/g
Radioactivity distribution Lung ([1]; 60 min after administration): 0.78 ± 0.03 % ID/g
Radioactivity distribution Muscle (lower limbs) ([1]; 60 min after administration): 0.14 ± 0.01 % ID/g
Radioactivity distribution Remaining whole body ([1]; 60 min after administration): 0.28 ± 0.04 % ID/g
Radioactivity distribution Small intestine ([1]; 60 min after administration): 3.98 ± 1.32 % ID/g
Radioactivity distribution Spleen ([1]; 60 min after administration): 5.62 ± 1.11 % ID/g
Radioactivity distribution Stomach ([1]; 60 min after administration): 0.89 ± 0.21 % ID/g
Radioactivity distribution Testis ([1]; 60 min after administration): 0.05 ± 0.01 % ID/g
Radioactivity distribution Whole brain ([1]; 60 min after administration): 0.01 ± 0.00 % ID/g
Radiochemical purity after incubation in human plasma [2]: 94%
SMILES: [123I]c1ccc2nc(-c3cncc(Cn4ccnn4)c3)n(C3CC3)c2c1 [[^123I] 603, 1-Cyclopropyl-2-[3-(1H-1,2,3-triazol-1-ylmethyl)pyridin-5-yl]-6-[^123I]iodo-1H-benzimidazole]
B2/B1 accumulation ratio [3]: 1.01
B2 (PSL value, aldosterone-producing adenoma) ([3]; site 71b): 2043
B1 (PSL value, normal adrenal cortex) ([3]; site 72b): 2027
